Values quoted from earlier work, collected in US7422607B2, “Anti-calcification treatments for heart valves and vascular grafts” (priority 2004, dated 2008).

Settings: buffer system described by Giradot (U.S. Pat. No. 4,976,733)

- Solubility in the buffer system: extremely low solubility
Compound: CCCCCCCC/C=C\CCCCCCC(N)C(=O)O (stereo not drawn) [alpha amino oleic acid]
